According to paper PMC7806715, “Discovery of small molecules targeting the tandem tudor domain of the epigenetic factor UHRF1 using fragment-based ligand discovery” (Scientific Reports, 2021):

Legend:
[1] = biological target: T1, C-FLAG-UHRF1-FL (Homo sapiens, UniProt Q96T88); experiment: Intrinsic tryptophan fluorescence of C-FLAG-UHRF1-FL; type: binding; conditions: 5 µM protein
T1 construct: His6-UHRF1-full length (His6-UHRF1-FL); His (N); made in house; host or cells: Rosetta (DE3) E. coli, pMCSG7
T1 sequence (Q96T88 1-793): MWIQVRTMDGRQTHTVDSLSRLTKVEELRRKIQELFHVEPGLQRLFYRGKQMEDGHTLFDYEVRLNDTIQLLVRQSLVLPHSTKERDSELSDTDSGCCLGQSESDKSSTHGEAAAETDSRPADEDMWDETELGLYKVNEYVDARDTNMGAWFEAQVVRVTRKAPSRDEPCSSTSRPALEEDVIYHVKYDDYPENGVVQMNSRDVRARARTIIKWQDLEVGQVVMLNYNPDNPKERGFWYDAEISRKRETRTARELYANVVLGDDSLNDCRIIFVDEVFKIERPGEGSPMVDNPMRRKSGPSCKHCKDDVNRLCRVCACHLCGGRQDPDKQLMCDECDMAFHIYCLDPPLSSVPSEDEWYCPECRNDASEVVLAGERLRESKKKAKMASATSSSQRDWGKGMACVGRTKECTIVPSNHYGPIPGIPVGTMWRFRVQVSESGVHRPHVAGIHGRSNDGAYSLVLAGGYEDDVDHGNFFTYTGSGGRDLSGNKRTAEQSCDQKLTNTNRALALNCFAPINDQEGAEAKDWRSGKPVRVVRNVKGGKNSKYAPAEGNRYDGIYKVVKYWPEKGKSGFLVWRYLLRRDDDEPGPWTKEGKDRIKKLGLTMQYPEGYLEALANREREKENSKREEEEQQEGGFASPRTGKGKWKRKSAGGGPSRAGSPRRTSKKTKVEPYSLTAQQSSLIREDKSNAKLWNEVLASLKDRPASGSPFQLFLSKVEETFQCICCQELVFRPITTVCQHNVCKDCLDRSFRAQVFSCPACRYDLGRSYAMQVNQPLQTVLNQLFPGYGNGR
Method: The untagged TTD was diluted to 30 µM by buffer (50 mM sodium phosphate, pH 7.5, 150 mM NaCl) with or without 60 µM of H3K9me3 peptide (1–20) (Anaspec). 10 µL of diluted TTD was added into 384-well flat bottom black plate (Greiner, Cat# 781086). […] The final concentration of TTD was 15 µM and the H3K9me3 peptide (if included) was 30 µM. The experiment was performed at room temperature. […] After compound addition, the intrinsic tryptophan fluorescence was analyzed by the Tecan Infinite M1000 plate reader (excitation 280 nm, emission 334 nm). […] Tryptophan fluorescence monitors 2 , 4 - lutidine binding to His 6 - TTD, His 6 - TTD - PHD, and C - FLAG - UHRF 1 - FL . 2 , 4 - Lutidine dose - dependently quenched the tryptophan fluorescence of TTD (purple circle), while only started to show quenching effect against His 6 - TTD - PHD at mM concentration (blue diamond) . 2 , 4 - Lutidine had no effect on the fluorescence of C - FLAG - UHRF 1 - FL and the control USP 7 - UBL 1 / 2 protein . n= 3 for each data point . (Note : the standard deviation error bars are included, but the error values are often extremely small in this assay) . […]

[2] = no reference given; cited from earlier work

Cc1ccnc(C)c1 [2,4-lutidine]
quenching of C-FLAG-UHRF1 tryptophan fluorescence (in words) [1]: did not quench | pKa [2]: 6.99
